Laboratory results: patent US20190177286A1, “CRYSTAL MODIFICATIONS OF ELOBIXIBAT” (Elobix AB, priority 2014, published 2019)
One block for each molecule: values may come before it.

Assay: Dynamic Vapor Sorption (DVS), two sorption-desorption cycles 0-95-0% RH
Type: physicochemical
Conditions: for phase change from anhydrate to dihydrate, significant change in moisture (sorption curves): DVS sorption cycles
Method: Approximately 2-16 mg of the sample was weighed into a metal receptacle, which was then released of static electricity. The metal receptacle was positioned in a Surface Measurements System Ltd DVS Advantage instrument. The sample was subjected to two consecutive sorption-desorption cycles, each running from 0-95-0% relative humidity (% RH). One cycle consisted of 21 steps, those between 0-90% RH were taken in 10% RH each. At each stage the following equilibrium criteria was used: dm/dt over 5 minutes <0,002% and the minimum and maximum time at each stage were 10 and 360 min respectively.

phase change from anhydrate to dihydrate, significant change in moisture (sorption curves) (listed as C): 60-70 % RH
SMILES: CCCCC1(CCCC)CN(c2ccccc2)c2cc(SC)c(OCC(=O)N[C@@H](C(=O)NCC(=O)O)c3ccccc3)cc2S(=O)(=O)C1 [crystal modification C, N-{(2R)-2-[({[3,3-dibutyl-7-(methylthio)-1,1-dioxido-5-phenyl-2,3,4,5-tetrahydro-1,5-benzothiazepin-8-yl]oxy}acetyl)amino]-2-phenylethanolyl}-glycine]

moisture uptake (DVS isotherm) (weight % water versus % RH, two consecutive DVS cycles, FIG. 10): linear function of % RH
SMILES: CCCCC1(CCCC)CN(c2ccccc2)c2cc(SC)c(OCC(=O)N[C@@H](C(=O)NCC(=O)O)c3ccccc3)cc2S(=O)(=O)C1 [crystal modification F, N-{(2R)-2-[({[3,3-dibutyl-7-(methylthio)-1,1-dioxido-5-phenyl-2,3,4,5-tetrahydro-1,5-benzothiazepin-8-yl]oxy}acetyl)amino]-2-phenylethanolyl}-glycine]

SMILES: CCCCC1(CCCC)CN(c2ccccc2)c2cc(SC)c(OCC(=O)N[C@@H](C(=O)NCC(=O)O)c3ccccc3)cc2S(=O)(=O)C1 [crystal modification N, N-{(2R)-2-[({[3,3-dibutyl-7-(methylthio)-1,1-dioxido-5-phenyl-2,3,4,5-tetrahydro-1,5-benzothiazepin-8-yl]oxy}acetyl)amino]-2-phenylethanolyl}-glycine]
moisture amount where the four DVS curves coincide (dihydrate) (DVS, sorption and desorption curves of two cycles): around 5 % w/w

phase change from anhydrate to dihydrate, significant change in moisture (sorption curves) (listed as L): 40-50 % RH
SMILES: CCCCC1(CCCC)CN(c2ccccc2)c2cc(SC)c(OCC(=O)N[C@@H](C(=O)NCC(=O)O)c3ccccc3)cc2S(=O)(=O)C1 [crystal modification L, N-{(2R)-2-[({[3,3-dibutyl-7-(methylthio)-1,1-dioxido-5-phenyl-2,3,4,5-tetrahydro-1,5-benzothiazepin-8-yl]oxy}acetyl)amino]-2-phenylethanolyl}-glycine]
